Earlier results, collected in patent US20140316796A1, “SYSTEMS, METHODS, AND COMPUTER-READABLE MEDIA FOR LIMITED DISTRIBUTION OF SPECIALTY DRUG USING A COMPUTER HUB OPERATING AT A SINGLE ACCESS POINT” (Jazz Pharmaceuticals, priority 2013, published 2014).

Columns and labels:
[1] = pH 4
[2] = in vivo

In the case of CSCC[C@@H]1NC(=O)[C@H](CC(C)C)NC(=O)[C@H](CCCNC(=N)N)NC(=O)[C@H](CO)NC(=O)[C@@H]2CSSC[C@@H]3NC(=O)[C@H](CO)NC(=O)CNC(=O)[C@H]([C@@H](C)O)NC(=O)[C@H](CSSC[C@H](N)C(=O)N[C@@H](CCCCN)C(=O)NCC(=O)N[C@@H](CCCCN)C(=O)NCC(=O)N[C@@H](C)C(=O)N[C@@H](CCCCN)C(=O)N2)NC(=O)[C@H](CSSC[C@@H](C(N)=O)NC(=O)[C@H](CCCCN)NC(=O)CNC(=O)[C@H](CO)NC(=O)[C@H](CCCNC(=N)N)NC3=O)NC(=O)[C@H](CC(=O)O)NC(=O)[C@H](Cc2ccc(O)cc2)NC1=O [ziconotide], the “stabilisation by methionine-containing buffer” value [1] is given as “effective in stabilizing ziconotide”, the addiction potential [2] is given as “does not have addiction potential” and the development of tolerance [2] is given as “tolerance does not appear to develop”. The “effect on respiratory function” value [2] was “does not suppress respiratory function”.
